Reference: ChEMBL document CHEMBL3091345, “Strepsesquitriol, a rearranged zizaane-type sesquiterpenoid from the deep-sea-derived actinomycete Streptomyces sp. SCSIO 10355” (2013)

Test system: RAW264.7
Experiment: Antiinflammatory activity in mouse RAW264.7 cells assessed as inhibition of LPS-induced TNFalpha production at 100 uM treated 4 hrs before LPS challenge measured after overnight incubation by ELISA
Assay type: functional

Row | Compound | inhibition at 100 µM [%]
1 | C[C@H]1C[C@@H](O)[C@]23C[C@H](CC[C@]12O)C(C)(C)[C@]3(C)O | 35.4
2 | Cc1ccc(S(=O)(=O)N[C@@H](Cc2ccccc2)C(=O)CCl)cc1 [TPCK] | 60.6
